From patent publication US20230276804A1, “A PESTICIDALLY ACTIVE MIXTURE COMPRISING PYRAZOLOPYRIDINE ANTHRANILAMIDE COMPOUND, OXIDES OR SALTS THEREOF” (priority 2020, published 2023)

Assays:
Assay type in all cases: in vivo
Plutella xylostella = assay: Leaf dip method (cabbage leaves) against Plutella xylostella (Example C); conditions: single compound, 72 h
Procedure: The leaf dip method was used, wherein the required quantity of the compound or respective compound combinations were weighed and dissolved in a test solution prepared in tubes. The tubes were put on a vortex at 2000 rpm for 90 min for proper mixing and then the test solutions were diluted with 0.01% Triton-X to the desired test concentration. Cabbage leaves were dipped into the solution for 10 seconds, shade dried for 20 min and then transferred to single cells of bioassay trays. A single second instar larva was released into each cell and the tray was covered with a lid. The bio-assay trays were kept under laboratory conditions at a temperature of 25° C. and relative humidity of 70%. Observations on dead, moribund and live larvae were recorded 72 h after the release. Percent mortality was calculated by combining dead and moribund larvae and comparing the result with the one of the untreated control. The results are shown for compound of formula (I-III) in Table C.

Helicoverpa armigera = assay: Diet incorporation method against Helicoverpa armigera (Example A); conditions: single compound, 96 h
Procedure: The diet incorporation method was used, in which semi-synthetic diet was incorporated into the test solutions consisting either of the single compounds or respective compound combinations, when the temperature was approximately 50° C. in the bio-assay containers, then stirred thoroughly for proper mixing and allowed to cool for 30 min. The solidified diet was cut into equal pieces, and then each piece was transferred into one cell of a bio-assay tray. A single starved third instar larva was released into each of these cells of the bio-assay trays and the tray was covered with a lid. The bio-assay trays were kept under laboratory conditions at a temperature of 25° C. and relative humidity of 70%. Observations on dead, moribund and live larvae were recorded 96 h after the release of the larvae. Percent mortality was calculated by combining dead and moribund larvae and comparing the result to the one of the untreated control. The results are shown for the compound of formula (I-III) in Table A.

Spodoptera litura = assay: Diet incorporation method against Spodoptera litura (Example B); conditions: single compound, 96 h
Procedure: The diet incorporation method was used, in which semi-synthetic diet was incorporated into the test solution consisting either of the single compound or respective compound combinations, when the temperature was approximately 50° C. in the bioassay containers, then stirred thoroughly for proper mixing and allowed to cool for 30 min. The solidified diet was cut into equal pieces, and then each piece was transferred into one cell of the bio-assay trays. A single starved third instar larva was released into each of these cells of the bio-assay trays and the tray was covered with a lid. The bio-assay trays were kept under laboratory conditions at a temperature of 25° C. and relative humidity of 70%. Observations on dead, moribund and live larvae were recorded 96 h after the release. Percent mortality was calculated by combining dead and moribund larvae and comparing the result with the one of the untreated control. The results are shown for the compound of formula (I-III) in Table B.

Phakopsora pachyrhizi = assay: Preventive glasshouse test against Phakopsora pachyrhizi in soybean (Example H); conditions: single compound
Procedure: The single compounds or the respective compound combinations were dissolved in 2% dimethyl sulfoxide/acetone and then mixed with water containing an emulsifier to a calibrated spray volume of 50 ml. The test solutions were poured into spray bottles for further applications.
To test the preventive activity of compounds, healthy young Soybean plants, raised in the greenhouse, were sprayed with the active compound preparation at the stated application rates inside the spray cabinets using hollow cone nozzles. One day after treatment, the plants were inoculated with a suspension containing 2×10^5 Phakopsora pachyrhizi conidia. The inoculated plants were then kept in a greenhouse chamber at a temperature of 22-24° C. and 80-90% relative humidity for disease expression.
A visual assessment of the performance of the single compounds and respective compound combinations was carried out by rating the disease severity (0-100% scale) on treated plants 3, 7, 10 and 15 days after application. Efficacy (% control) of the compounds was calculated by comparing the disease rating in the treatment with the one of the untreated control. The compounds were also assessed for their plant compatibility by recording symptoms like necrosis, chlorosis and stunting. The results have been described for the compound of formula (I-III) in Table H.

Alternaria solani = assay: Preventive glasshouse test against Alternaria solani in tomato (Example G); conditions: single compound
Procedure: The single compounds or respective compound combinations were dissolved in 2% dimethyl sulfoxide/acetone and then mixed with water containing emulsifier to a calibrated spray volume of 50 mL. The test solutions were poured into spray bottles for further applications.
To test the preventive activity, healthy young tomato plants, raised in the greenhouse, were sprayed with the active compound preparation at the stated application rates inside the spray cabinets using hollow cone nozzles. One day after treatment, the plants were inoculated with a spore suspension containing 0.24×10^6 Alternaria solani inoculum and 2% Malt. The inoculated plants were then kept in a greenhouse chamber at a temperature of 22-24° C. and 90-95% relative humidity for disease expression.
A visual assessment of the performance of the single compounds or compound combinations was carried out by rating the disease severity (0-100% scale) on treated plants 3, 7, 10 and 15 days after application. Efficacy (% control) of the single compounds and mixtures was calculated by comparing the disease rating in the treatment with the one of the untreated control. The compounds were also assessed for their plant compatibility by recording symptoms like necrosis, chlorosis and stunting. The results have been described for the compound of formula (I-III) in Table G.

Erysiphe cichoracearum = assay: Preventive glasshouse test against Erysiphe cichoracearum in cucumber (Example K); conditions: single compound, Conc. 100 ppm
Procedure: The single compounds or the respective compound combinations were dissolved in 2% dimethyl sulfoxide/acetone and then mixed with water containing emulsifier to a calibrated spray volume of 50 mL. The test solutions were poured into spray bottles for further applications.
To test the preventive activity of compounds, healthy young cucumber plants, raised in the greenhouse, were sprayed with the active compound preparation at the stated application rates inside the spray cabinets using hollow cone nozzles. One day after treatment, the plants were inoculated with a conidial suspension containing 2×10^5 Erysiphe cichoracearum inoculum. The inoculated plants were then kept in a greenhouse chamber at a temperature of 22-24° C. and 50-60% relative humidity for disease expression.
A visual assessment of the performance of the compounds and the respective compound combinations was carried out by rating the disease severity (0-100% scale) on treated plants 3, 7, 10 and 15 days after application. Efficacy (% control) of the single compounds or compound combinations was calculated by comparing the disease rating in the treatment with the one of the untreated control. The compounds were also assessed for their plant compatibility by recording symptoms like necrosis, chlorosis and stunting. The results have been described for the compound of formula (I-III) in Table K.

[1] = Spodoptera litura, 100 ppm, read-out: Observed Efficacy (%)
[2] = Spodoptera litura, read-out: Observed Efficacy (%)
[3] = Helicoverpa armigera, 100 ppm, read-out: Observed Efficacy (%)

## N#Cc1ccc(CC(=NNC(=O)Nc2ccc(OC(F)(F)F)cc2)c2cccc(C(F)(F)F)c2)cc1 (mixture of isomers) [Metaflumizone]
Plutella xylostella; 0.01 ppm
  Observed Efficacy (%): 25%
Plutella xylostella; 0.1 ppm
  Observed Efficacy (%): 0%

## Cc1c(COC(=O)[C@@H]2[C@H](/C=C(\Cl)C(F)(F)F)C2(C)C)cccc1-c1ccccc1 (racemic) [Bifenthrin]
Helicoverpa armigera; Helicoverpa armigera, 1 ppm, read-out: Observed Efficacy (%)
  pest or weed control at 1 ppm: 0%
Plutella xylostella; 0.5 ppm
  Observed Efficacy (%): 12.5%
Plutella xylostella; 1 ppm
  Observed Efficacy (%): 25%

## C[C@]1(COC(=O)C2CC2)[C@@H]2C[C@H](O)[C@@]3(C)Oc4cc(-c5cccnc5)oc(=O)c4[C@H](O)[C@@H]3[C@@]2(C)CC[C@@H]1OC(=O)C1CC1 [Afidopyropen]
Spodoptera litura; 50 ppm
  Observed Efficacy (%): 0%
Spodoptera litura; 100 ppm
  Observed Efficacy (%): 0%
Plutella xylostella; 0.1 ppm
  Observed Efficacy (%): 0%

## CN(C(=O)c1ccccc1)c1cccc(C(=O)Nc2c(Br)cc(C(F)(C(F)(F)F)C(F)(F)F)cc2C(F)(F)F)c1F [Broflanilide]
Helicoverpa armigera; 0.05 ppm
  Observed Efficacy (%): 0%
Helicoverpa armigera; 0.1 ppm
  Observed Efficacy (%): 12.5%
Spodoptera litura; 0.05 ppm
  Observed Efficacy (%): 0%

## CN/C(=N\[N+](=O)[O-])NCc1cnc(Cl)s1 [Clothianidin]
Helicoverpa armigera; Helicoverpa armigera, 10 ppm, read-out: Observed Efficacy (%)
  pest or weed control at 10 ppm: 12.5%
Helicoverpa armigera; Helicoverpa armigera, 20 ppm, read-out: Observed Efficacy (%)
  pest or weed control at 20 ppm: 25%
Spodoptera litura; Spodoptera litura, 20 ppm, read-out: Observed Efficacy (%)
  pest or weed control at 20 ppm: 0%

## CCN(C(=O)c1cnn(C(C)C(C)C)c1C)c1ccnnc1 (stereo not shown) [Dimpropyridaz]
Spodoptera litura; 100 ppm
  Observed Efficacy (%): 0%
Plutella xylostella; 0.1 ppm
  Observed Efficacy (%): 12.5%

## N#Cc1nn(-c2c(Cl)cc(C(F)(F)F)cc2Cl)c(N)c1[S+]([O-])C(F)(F)F (stereo not shown) [Fipronil]
Plutella xylostella; 0.001 ppm
  Observed Efficacy (%): 0%

## CCc1nc2cc(C)c(Oc3ccc(OC(F)(F)F)cc3)cc2c(OC(=O)OC)c1C [Flometoquin]
Plutella xylostella; 0.005 ppm
  Observed Efficacy (%): 12.5%

## N#Cc1c[nH]cc1-c1cccc2c1OC(F)(F)O2 [Fludioxonil]
Spodoptera litura; [1]
  pest or weed control at 100 ppm: 37.5%
Spodoptera litura; [2]
  pest or weed control at 200 ppm: 25%
Phakopsora pachyrhizi; 2.0 ppm
  Observed Efficacy (%): 19%
Phakopsora pachyrhizi; 10.0 ppm
  Observed Efficacy (%): 28%

## CON=CNC(=O)c1ccc(C2=NOC(c3cc(Cl)cc(Cl)c3)(C(F)(F)F)C2)cc1C (stereo not shown) [Fluxametamid]
Plutella xylostella; 0.05 ppm
  Observed Efficacy (%): 0%
Plutella xylostella; 0.1 ppm
  Observed Efficacy (%): 0%

## O=[N+]([O-])NC1=NCCN1Cc1ccc(Cl)nc1 [Imidacloprid]
Helicoverpa armigera; Helicoverpa armigera, 50 ppm, read-out: Observed Efficacy (%)
  pest or weed control at 50 ppm: 0%
Spodoptera litura; [1]
  pest or weed control at 100 ppm: 0%
Plutella xylostella; 0.1 ppm
  Observed Efficacy (%): 0%

## COC(=O)N(C(=O)N1CO[C@@]2(C(=O)OC)Cc3cc(Cl)ccc3C2=N1)c1ccc(OC(F)(F)F)cc1 [Indoxacarb]
Helicoverpa armigera; 0.1 ppm
  Observed Efficacy (%): 0%
Spodoptera litura; 0.1 ppm
  Observed Efficacy (%): 0%

## CCN1OCC(NC(=O)c2ccc(C3=NOC(c4cc(Cl)c(F)c(Cl)c4)(C(F)(F)F)C3)cc2C)C1=O (stereo not shown) [Isocycloseram]
Spodoptera litura; 10 ppm
  Observed Efficacy (%): 12.5%
Plutella xylostella; 0.1 ppm
  Observed Efficacy (%): 87.5%

## COCC(=O)N(c1c(C)cccc1C)C(C)C(=O)OC (stereo not shown) [Metalaxyl]
Spodoptera litura; [2]
  pest or weed control at 200 ppm: 0%
  pest or weed control at 500 ppm: 0%
Alternaria solani; 50 ppm
  Observed Efficacy (%): 22%
Alternaria solani; 100 ppm
  Observed Efficacy (%): 22%
Erysiphe cichoracearum
  Observed Efficacy (%): 31%

## CCS(=O)(=O)c1cccnc1-c1nc2cc(S(=O)(=O)C(F)(F)F)ccc2o1 [Oxazosulfyl, 2-[3-(ethanesulfonyl)pyridin-2-yl]-5-[trifluoro(methanesulfonyl)]-1,3-benzoxazole]
Helicoverpa armigera; [3]
  pest or weed control at 100 ppm: 12.5%
Plutella xylostella; 0.1 ppm
  Observed Efficacy (%): 0%

## CC1=NNC(=O)N(/N=C/c2cccnc2)C1 [Pymetrozine]
Plutella xylostella; 0.01 ppm
  Observed Efficacy (%): 0%
Plutella xylostella; 0.05 ppm
  Observed Efficacy (%): 0%
Plutella xylostella; 1 ppm
  Observed Efficacy (%): 12.5%

## CC(COc1ccc(Oc2ccccc2)cc1)Oc1ccccn1 (stereo not shown) [Pyriproxyfen]
Plutella xylostella; 0.05 ppm
  Observed Efficacy (%): 12.5%
Plutella xylostella; 0.1 ppm
  Observed Efficacy (%): 25%
Plutella xylostella; 1 ppm
  Observed Efficacy (%): 12.5%

## CN1COCN(Cc2cnc(Cl)s2)/C1=N\[N+](=O)[O-] [Thiamethoxam]
Helicoverpa armigera; [3]
  pest or weed control at 100 ppm: 25%
Spodoptera litura; Spodoptera litura, 50 ppm, read-out: Observed Efficacy (%)
  pest or weed control at 50 ppm: 0%
Spodoptera litura; [1]
  pest or weed control at 100 ppm: 0%
Plutella xylostella; 1 ppm
  Observed Efficacy (%): 12.5%

## COC(=O)NC(=S)Nc1ccccc1NC(=S)NC(=O)OC [Thiophanate-methyl]
Helicoverpa armigera; [3]
  pest or weed control at 100 ppm: 0%
Helicoverpa armigera; Helicoverpa armigera, 200 ppm, read-out: Observed Efficacy (%)
  pest or weed control at 200 ppm: 0%
Helicoverpa armigera; Helicoverpa armigera, 500 ppm, read-out: Observed Efficacy (%)
  pest or weed control at 500 ppm: 0%
Spodoptera litura; [1]
  pest or weed control at 100 ppm: 0%
Spodoptera litura; [2]
  pest or weed control at 200 ppm: 0%
  pest or weed control at 500 ppm: 0%
Alternaria solani; 10 ppm
  Observed Efficacy (%): 36%
Alternaria solani; 50 ppm
  Observed Efficacy (%): 36%

## O=c1c(-c2cccc(C(F)(F)F)c2)c([O-])[n+](Cc2cncnc2)c2ccccn12 [Triflumezopyrim]
Helicoverpa armigera; 50 ppm
  Observed Efficacy (%): 12.5%
Helicoverpa armigera; 100 ppm
  Observed Efficacy (%): 0%
Spodoptera litura; 50 ppm
  Observed Efficacy (%): 25%

## CCN(C(=O)CCSCCC(F)(F)F)c1cn(-c2cccnc2)nc1Cl [Tyclopyrazoflor]
Spodoptera litura; 100 ppm
  Observed Efficacy (%): 0%
Plutella xylostella; 0.1 ppm
  Observed Efficacy (%): 0%

## Abamectin
Plutella xylostella; 0.001 ppm
  Observed Efficacy (%): 12.5%
Plutella xylostella; 0.005 ppm
  Observed Efficacy (%): 25%

## Emamectin benzoate
Helicoverpa armigera; 0.1 ppm
  Observed Efficacy (%): 12.5%
Spodoptera litura; 0.05 ppm
  Observed Efficacy (%): 12.5%
Spodoptera litura; 0.1 ppm
  Observed Efficacy (%): 25%

## Spinetoram
Helicoverpa armigera; 0.5 ppm
  Observed Efficacy (%): 25%
Plutella xylostella; 0.05 ppm
  Observed Efficacy (%): 62.5%

## Spinosad
Helicoverpa armigera; 0.2 ppm
  Observed Efficacy (%): 12.5%
Spodoptera litura; 0.2 ppm
  Observed Efficacy (%): 0%
